Results from patent US20240279220A1, “INDOLE COMPOUNDS AND METHODS OF USE” (Genzyme Corporation, priority 2021, published 2024).

These compounds were tested on NBD1/3D (assay: Aggregation analysis using differential static light scattering (DSLS), NBD1 thermal stability). Conditions: ΔTagg versus DMSO control; compound at 100 μM.
Type: binding, Human
Summary of the method: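 Thermal stabilisation reported as ΔTagg, i.e. aggregation temperature relative to averaged DMSO wells. Tagg came from the inflection of differential static light scattering imaged 25–70 °C while NBD1 (0.2 mg/ml, Tris pH 7.6 buffer containing ATP, MgCl2, DTT, glycerol) was ramped 1 °C/min.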

| SMILES | DSLS NBD1/3D Human Stability delta-T (° C.) @ 100 (μM) |
| --- | --- |
| CC(O)(c1cccc(CCC(=O)O)c1)c1c[nH]c(-c2cc(Oc3c(F)cc4[nH]ccc4c3S(C)(=N)=O)ccc2F)n1 (centres unmarked) [Example 203, 3-(3-(1-(2-(2-fluoro-5-((6-fluoro-4-(S-methylsulfonimidoyl)-1H-indol-5-yl)oxy)phenyl)-1H-imidazol-4-yl)-1-hydroxyethyl)phenyl) propanoic acid] | A (A: T ≥ 10° C.) |
| Cc1c(Oc2ccc(F)c(-c3ncc(C(C)(O)c4cccc(CCC(=O)O)c4)[nH]3)c2)c(F)c(F)c2[nH]ccc12 (centres unmarked) [Example 204, 3-(3-(1-(2-(5-((6,7-difluoro-4-methyl-1H-indol-5-yl)oxy)-2-fluorophenyl)-1H-imidazol-5-yl)-1-hydroxyethyl)phenyl) propanoic acid] | B (B: 5-10° C.) |
| Cc1c(Oc2cnc(F)c(-c3ncc(C(C)(O)c4cccc(CCC(=O)O)c4)[nH]3)c2)c(F)cc2[nH]ccc12 (centres unmarked) [Example 207, 3-(3-(1-(2-(2-fluoro-5-((6-fluoro-4-methyl-1H-indol-5-yl)oxy)pyridin-3-yl)-1H-imidazol-5-yl)-1-hydroxyethyl)phenyl) propanoic acid] | B (B: 5-10° C.) |
| Cc1c(Oc2cccc(-c3ncc(C(C)(O)c4cccc(CCS(C)(=O)=O)c4)[nH]3)c2)c(F)cc2[nH]ccc12 (centres unmarked) [Example 208, 1-(2-(3-((6-fluoro-4-methyl-1H-indol-5-yl)oxy)phenyl)-1H-imidazol-5-yl)-1-(3-(2-(methylsulfonyl)ethyl)phenyl)ethan-1-ol] | C (C: ≤5° C.) |
| CC(O)(c1cccc(CS(N)(=O)=O)c1)c1cnc(-c2cccc(Oc3c(F)cc4[nH]ccc4c3F)c2)[nH]1 (centres unmarked) [Example 209, (3-(1-(2-(3-((4,6-difluoro-1H-indol-5-yl)oxy)phenyl)-1H-imidazol-5-yl)-1-hydroxyethyl)phenyl) methanesulfonamide] | B (B: 5-10° C.) |
| CC(O)(c1cccc(/C=C2\SC(=O)NC2=O)c1)c1cnc(-c2cccc(Oc3c(F)cc4[nH]ccc4c3F)c2)[nH]1 (centres unmarked) [Example 210, (Z)-5-(3-(1-(2-(3-((4,6-Difluoro-1H-indol-5-yl)oxy)phenyl)-1H-imidazol-5-yl)-1-hydroxyethyl)benzylidene)thiazolidine-2,4-dione] | B (B: 5-10° C.) |
| CC(O)(c1cccc(CC2SC(=O)NC2=O)c1)c1cnc(-c2cccc(Oc3c(F)cc4[nH]ccc4c3F)c2)[nH]1 (centres unmarked) [Example 211, 5-(3-(1-(2-(3-((4,6-Difluoro-1H-indol-5-yl)oxy)phenyl)-1H-imidazol-5-yl)-1-hydroxyethyl)benzyl)thiazolidine-2,4-dione] | B (B: 5-10° C.) |
| CC(=O)NS(=O)(=O)Cc1cccc(C(C)(O)c2cnc(-c3cccc(Oc4c(F)cc5[nH]ccc5c4F)c3)[nH]2)c1 (centres unmarked) [Example 212, N-((3-(1-(2-(3-((4,6-Difluoro-1H-indol-5-yl)oxy)phenyl)-1H-imidazol-5-yl)-1-hydroxyethyl)benzyl)sulfonyl)acetamide] | B (B: 5-10° C.) |
| Cc1c(Oc2ccc(F)c(-c3ncc(C(C)c4cccc(CCC(=O)O)c4)[nH]3)c2)c(F)cc2[nH]ccc12 (centres unmarked) [Example 213, 3-(3-(1-(2-(2-Fluoro-5-((6-fluoro-4-methyl-1H-indol-5-yl)oxy)phenyl)-1H-imidazol-5-yl)ethyl)phenyl)propanoic acid] | B (B: 5-10° C.) |
| C=C(c1cccc(CCC(=O)O)c1)c1cnc(-c2cc(Oc3c(F)cc4[nH]ccc4c3C)ccc2F)[nH]1 [Example 214, 3-(3-(1-(2-(2-Fluoro-5-((6-fluoro-4-methyl-1H-indol-5-yl)oxy)phenyl)-1H-imidazol-5-yl)vinyl)phenyl)propanoic acid] | C (C: ≤5° C.) |
| Cc1nc(-c2cc(Oc3c(F)cc4[nH]ccc4c3C)ccc2F)[nH]c1C(O)c1cccc(CCC(=O)O)c1 (centres unmarked) [Example 217, 3-(3-((2-(2-Fluoro-5-((6-fluoro-4-methyl-1H-indol-5-yl)oxy)phenyl)-4-methyl-1H-imidazol-5-yl)(hydroxy)methyl)phenyl)propanoic acid] | B (B: 5-10° C.) |
| CC(O)(c1cccc(CCC(=O)O)c1)c1c[nH]c(-c2cc(C(O)c3ccc4[nH]ccc4c3)ccc2F)n1 (centres unmarked) [Example 218, 3-(3-(1-(2-(2-Fluoro-5-(hydroxy(1H-indol-5-yl)methyl)phenyl)-1H-imidazol-4-yl)-1-hydroxyethyl)phenyl)propanoic acid] | B (B: 5-10° C.) |
| C[C@@H](O)C(=O)N1Cc2ccc(C(C)(O)c3cnc(-c4cccc(Oc5c(F)cc6[nH]ccc6c5F)c4)[nH]3)cc2C1 (stereo partly drawn) [Example 219, (2R)-1-(5-(1-(2-(3-((4,6-Difluoro-1H-indol-5-yl)oxy)phenyl)-1H-imidazol-5-yl)-1-hydroxyethyl)isoindolin-2-yl)-2-hydroxypropan-1-one] | C (C: ≤5° C.) |
| CC(O)(c1cc(F)cc(CCC(=O)O)c1)c1c[nH]c(-c2cc(Oc3c(F)cc4[nH]ccc4c3F)ccc2F)n1 (centres unmarked) [Example 220, 3-(3-(1-(2-(5-((4,6-Difluoro-1H-indol-5-yl)oxy)-2-fluorophenyl)-1H-imidazol-4-yl)-1-hydroxyethyl)-5-fluorophenyl)propanoic acid] | B (B: 5-10° C.) |
| CC(=O)CCc1cc(F)cc(C(C)(O)c2c[nH]c(-c3cc(Oc4c(F)cc5[nH]ccc5c4F)ccc3F)n2)c1 (centres unmarked) [Example 221, 4-(3-(1-(2-(5-((4,6-Difluoro-1H-indol-5-yl)oxy)-2-fluorophenyl)-1H-imidazol-4-yl)-1-hydroxyethyl)-5-fluorophenyl)butan-2-one] | C (C: ≤5° C.) |
| Cc1c(Oc2cccc(-c3ncc(C(C)(O)c4cccc(C5CC5C(=O)O)c4)[nH]3)c2)ccc2[nH]ccc12 (centres unmarked) [Example 222, 2-(3-(1-hydroxy-1-(2-(3-((4-methyl-1H-indol-5-yl)oxy)phenyl)-1H-imidazol-5-yl)ethyl)phenyl)cyclopropane-1-carboxylic acid] | B (B: 5-10° C.) |
| CCC(O)(c1cccc(CCC(=O)O)c1)c1cnc(-c2cc(Oc3c(F)cc4[nH]ccc4c3C)ccc2F)[nH]1 (centres unmarked) [Example 223, 3-(3-(1-(2-(2-fluoro-5-((6-fluoro-4-methyl-1H-indol-5-yl)oxy)phenyl)-1H-imidazol-5-yl)-1-hydroxypropyl)phenyl) propanoic acid] | B (B: 5-10° C.) |
| Cc1c(Oc2ccc(F)c(-c3ncc(C(O)(c4cccc(CCC(=O)O)c4)C(C)C)[nH]3)c2)c(F)cc2[nH]ccc12 (centres unmarked) [Example 224, 3-(3-(1-(2-(2-fluoro-5-((6-fluoro-4-methyl-1H-indol-5-yl)oxy)phenyl)-1H-imidazol-5-yl)-1-hydroxy-2-methylpropyl)phenyl) propanoic acid] | B (B: 5-10° C.) |
| CCCC(O)(c1cccc(CCC(=O)O)c1)c1c[nH]c(-c2cc(Oc3c(F)cc4[nH]ccc4c3C)ccc2F)n1 (centres unmarked) [Example 225, 3-(3-(1-(2-(2-fluoro-5-((6-fluoro-4-methyl-1H-indol-5-yl)oxy)phenyl)-1H-imidazol-4-yl)-1-hydroxybutyl)phenyl) propanoic acid] | B (B: 5-10° C.) |
| CCCCC(O)(c1cccc(CCC(=O)O)c1)c1c[nH]c(-c2cc(Oc3c(F)cc4[nH]ccc4c3C)ccc2F)n1 (centres unmarked) [Example 226, 3-(3-(1-(2-(2-fluoro-5-((6-fluoro-4-methyl-1H-indol-5-yl)oxy)phenyl)-1H-imidazol-4-yl)-1-hydroxypentyl)phenyl) propanoic acid] | B (B: 5-10° C.) |
| CC1(C)COC(c2cccc(CCC(=O)O)c2)(c2cnc(-c3cc(Oc4c(F)c(F)c5[nH]ccc5c4F)ccc3F)[nH]2)OC1 [Example 227, 3-(3-(2-(2-(2-Fluoro-5-((4,6,7-trifluoro-1H-indol-5-yl)oxy)phenyl)-1H-imidazol-5-yl)-5,5-dimethyl-1,3-dioxan-2-yl)phenyl)propanoic acid] | A (A: T ≥ 10° C.) |
| O=C(O)CCc1cccc(C2(c3cnc(-c4cc(Oc5c(F)cc6[nH]ccc6c5F)ccc4F)[nH]3)OCCCO2)c1 [Example 228, 3-(3-(2-(2-(5-((4,6-difluoro-1H-indol-5-yl)oxy)-2-fluorophenyl)-1H-imidazol-5-yl)-1,3-dioxan-2-yl)phenyl)propanoic acid] | A (A: T ≥ 10° C.) |
| O=C(O)CCc1cccc(C2(c3cnc(-c4cc(Oc5c(F)cc6[nH]ccc6c5F)ccc4F)[nH]3)OCCO2)c1 [Example 229, 3-(3-(2-(2-(5-((4,6-difluoro-1H-indol-5-yl)oxy)-2-fluorophenyl)-1H-imidazol-5-yl)-1,3-dioxolan-2-yl)phenyl)propanoic acid] | A (A: T ≥ 10° C.) |
| Cc1c(Oc2ccc(F)c(-c3ncc(C4(c5cccc(CCC(=O)O)c5)OCC(C)(C)CO4)[nH]3)c2)c(F)cc2[nH]ccc12 [Example 230, 3-(3-(2-(2-(2-fluoro-5-((6-fluoro-4-methyl-1H-indol-5-yl)oxy)phenyl)-1H-imidazol-5-yl)-5,5-dimethyl-1,3-dioxan-2-yl)phenyl)propanoic acid] | A (A: T ≥ 10° C.) |
| Cc1c(Oc2ccc(F)c(-c3nc(C4(c5cccc(CCC(=O)O)c5)OCCCO4)c[nH]3)c2)c(F)cc2[nH]ccc12 [Example 231, 3-(3-(2-(2-(2-fluoro-5-((6-fluoro-4-methyl-1H-indol-5-yl)oxy)phenyl)-1H-imidazol-4-yl)-1,3-dioxan-2-yl)phenyl)propanoic acid] | A (A: T ≥ 10° C.) |
| Cc1c(Oc2ccc(F)c(-c3nc(C4(c5cccc(CCC(=O)O)c5)OCCO4)c[nH]3)c2)c(F)cc2[nH]ccc12 [Example 232, 3-(3-(2-(2-(2-fluoro-5-((6-fluoro-4-methyl-1H-indol-5-yl)oxy)phenyl)-1H-imidazol-4-yl)-1,3-dioxolan-2-yl)phenyl)propanoic acid] | B (B: 5-10° C.) |
